Consider four compounds from the Kinase Knowledgebase extract (Sharma et al. 2016).

One test concerns the target CDK2 (human) (UniProt P24941). Description: Enzyme Assay. To be noted: concentration not given here.
The target in the next test is EGFR (human) (UniProt P00533). To be noted: concentration not given here.
Sequence of EGFR (human) (P00533 whole entry, looked up): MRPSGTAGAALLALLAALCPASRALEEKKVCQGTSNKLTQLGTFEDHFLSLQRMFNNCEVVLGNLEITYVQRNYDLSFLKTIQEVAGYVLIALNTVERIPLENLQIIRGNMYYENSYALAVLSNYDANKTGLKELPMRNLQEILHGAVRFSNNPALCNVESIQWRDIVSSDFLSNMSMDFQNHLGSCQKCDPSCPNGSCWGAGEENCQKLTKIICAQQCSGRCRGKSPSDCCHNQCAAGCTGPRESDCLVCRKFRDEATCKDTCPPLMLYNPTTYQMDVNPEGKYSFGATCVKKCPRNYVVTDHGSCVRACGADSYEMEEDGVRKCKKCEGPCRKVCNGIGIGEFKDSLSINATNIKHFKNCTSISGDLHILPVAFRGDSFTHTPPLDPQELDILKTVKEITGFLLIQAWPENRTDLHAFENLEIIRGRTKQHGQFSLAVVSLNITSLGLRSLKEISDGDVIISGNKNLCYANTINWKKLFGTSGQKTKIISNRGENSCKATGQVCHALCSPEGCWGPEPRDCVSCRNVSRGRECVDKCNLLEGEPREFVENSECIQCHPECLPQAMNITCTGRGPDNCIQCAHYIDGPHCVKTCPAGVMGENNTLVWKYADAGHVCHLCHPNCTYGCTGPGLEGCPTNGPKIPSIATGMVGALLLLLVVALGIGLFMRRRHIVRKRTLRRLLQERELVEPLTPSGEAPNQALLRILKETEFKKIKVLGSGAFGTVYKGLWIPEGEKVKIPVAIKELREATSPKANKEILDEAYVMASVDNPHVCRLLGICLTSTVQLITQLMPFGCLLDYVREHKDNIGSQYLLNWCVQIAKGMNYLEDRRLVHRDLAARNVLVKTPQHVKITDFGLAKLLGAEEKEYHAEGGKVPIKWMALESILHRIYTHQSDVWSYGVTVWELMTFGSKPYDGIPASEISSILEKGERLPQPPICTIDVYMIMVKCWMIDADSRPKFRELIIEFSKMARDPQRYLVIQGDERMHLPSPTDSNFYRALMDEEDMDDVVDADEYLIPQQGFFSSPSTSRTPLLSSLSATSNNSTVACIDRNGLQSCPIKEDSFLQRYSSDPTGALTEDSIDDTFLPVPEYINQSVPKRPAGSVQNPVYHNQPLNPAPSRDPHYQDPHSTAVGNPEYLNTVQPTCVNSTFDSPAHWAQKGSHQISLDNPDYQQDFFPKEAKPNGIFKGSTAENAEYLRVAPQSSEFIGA

For orientation: inhibition means the drop in the measured response relative to a control, in per cent. High values mean a strong effect, low ones a weak effect. As to `COc1cc2c3c(c4c5ccccc5n(C)c4c2c(OC)c1OC)C(=O)NC3=O`, the inhibition against CDK2 (human) worked out at 58%. Regarding `COc1ccc2[nH]c3c4c(OC)c(OC)c(OC)cc4c4c(c3c2c1)C(=O)NC4=O`, the inhibition at EGFR (human) was 3%.

Turning to `COc1ccc(C2=C(c3c[nH]c4ccccc34)C(=O)NC2=O)cc1OC`, the inhibition came to 27% against EGFR (human) and 7% against CDK2 (human). In turn, `COc1cc(C2=C(c3c(C)[nH]c4ccccc34)C(=O)NC2=O)cc(OC)c1OC` gave an inhibition on EGFR (human) of 5%.
